Laboratory results from patent US20250179017A1 (GUANGDONG NEWOPP BIOPHARMACEUTICALS CO., LTD., priority 2022, published 2025).

These molecules were tested against T1, human EP2 (PTGER2) (Homo sapiens, UniProt P43116) (assay: EP2 antagonist assay (HEK-293 CNG membrane potential cAMP assay / 293T SEAP reporter assay, PGE2-stimulated)). Conditions: EP2 antagonist activity; concentration for 50% inhibition of signal compared to DMSO.
T1 construct: Cayman Chemical (Human EP2 Reporter Assay Kit)
Type: cell-based
Excerpt: 1. The HEK-293 CNG (Cyclic Nucleotide Gated) cell line expressing a modified CNG channel that leads to cell membrane depolarization in response to elevated intracellular cAMP levels, which can be measured using a fluorescent membrane potential dye, was engineered to express human EP2 (PTGER2) or EP4 (EP4R). The resulting cell line ACTOne™ PTGER2 or ACTOne™ EP4R as well as the fluorescent membrane potential dye were purchased from eEnzyme (Gaithersburg, MD, US) and used in this assay. Briefly, cells were plated at 1.2×10^4 cells/well in 20 μL DMEM supplemented with 2% Fetal Bovine Serum (FBS, VWR International), 1x Penicillin/Streptomycin (GenClone), 0.2 μg/mL puromycin (InvivoGen) and 50 μg/mL G418 (InvivoGen) on a 384 well plate (Greiner). The next day, cells were dye-loaded with 20 μL/well of 1x Dye-loading solution (eENZYME) following the manufacturer's instruction. After 2 hours of incubation at room temperature (RT) in the dark, a pre-read was made to obtain the background signals using CLARIOstar plate reader (BMG LABTECH, Germany) with the following filter settings: excitation=530/20 nm, emission=590/20 nm. Next, a serial dilution of compound (plus a DMSO control) were added to the plate (5 μL/well) and the reaction was incubated at RT for 15 min before adding 5 μL of PGE2 to every well for a final concentration of 5 nM. All wells were duplicated. The plate was then further incubated at RT for 30 min prior to a final read with the same machine settings. Background-subtracted signals were used to calculate IC50 values.
2. Human EP2 and EP4 Reporter Assay Kits were purchased from Cayman Chemical (Ann Arbor, MI, USA). The assay was performed following the provided User Manual. Briefly, a reverse transfection was performed by seeding 6.0×10^4 of 293T cells (ATCC) to each well of the provided Strip Plate coated with a proprietary transfection complex containing DNA constructs for expressing human EP2 or EP4 and a cAMP response element regulated secreted alkaline phosphatase (SEAP) reporter, in 200 μL DMEM supplemented with 2% FBS and incubated for 20-24 hours at 37° C. with 5% CO2. After the incubation, the culture medium was carefully removed, and the cells were replenished with 150 μL pre-warmed serum-free medium. PGE2 and test compounds were prepared together at 4x the desired final concentration, and 50 μL was added to each assigned well with the final concentration of 13 nM and 2 nM PGE2 for EP2 and EP4 assay, respectively. After 6-8 hours of incubation, 10 μL media from each well was transferred to corresponding well of a new plate, which was then sealed and incubated at 65° C. for 30 min. The plate was then cooled down to RT and 50 μL SEAP substrate was added to each well. Luminescence signal was measured using a CLARIOstar plate reader.
The IC50 value was determined as the concentration for 50% inhibition of signal compared to DMSO (A: IC50 […]; B: IC50 between 100 nM and 1,000 nM; C: IC50≥1,000 nM).

T1 sequence (P43116 whole entry): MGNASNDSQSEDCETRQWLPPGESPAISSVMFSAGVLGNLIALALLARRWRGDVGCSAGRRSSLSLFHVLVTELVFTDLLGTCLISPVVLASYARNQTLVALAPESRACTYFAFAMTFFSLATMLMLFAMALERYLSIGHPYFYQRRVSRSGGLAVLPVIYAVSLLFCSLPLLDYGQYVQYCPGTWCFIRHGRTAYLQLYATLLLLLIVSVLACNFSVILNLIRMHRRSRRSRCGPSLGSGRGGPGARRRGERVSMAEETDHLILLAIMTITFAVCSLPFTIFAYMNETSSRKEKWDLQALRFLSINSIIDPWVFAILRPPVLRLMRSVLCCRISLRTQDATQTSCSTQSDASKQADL

`C[C@@H](NC(=O)c1ccc(-c2ccc(F)cc2)c2ccn(Cc3ccc(C(F)(F)F)cc3)c12)c1ccc(C(=O)O)cc1` [Example 35, (R)-4-(1-(4-(4-fluorophenyl)-1-(4-(trifluoromethyl)benzyl)-1H-indole-7-carboxamido)ethyl)benzoic acid] and `O=C(O)c1ccc(C2(NC(=O)c3ccc(-c4ccc(F)cc4)c4ccn(Cc5ccc(C(F)(F)F)cc5)c34)CC2)cc1` [Example 42, 4-(1-(4-(4-fluorophenyl)-1-(4-(trifluoromethyl)benzyl)-1H-indole-7-carboxamido)cyclopropyl)-benzoic acid] cannot be ordered by IC50: ≥ 1000 nM for the first, ≥ 1000 nM for the second.

`O=C(O)c1ccc(C2(NC(=O)c3ccc(-c4ccccc4)c4ccn(Cc5ccc(C(F)(F)F)cc5)c34)CC2)cc1` [Example 36, 4-(1-(4-phenyl-1-(4-(trifluoromethyl)benzyl)-1H-indole-7-carboxamido)cyclopropyl)benzoic acid] and `N#Cc1cccc(-c2ccc(C(=O)NC3(c4ccc(C(=O)O)cc4)CC3)c3c2ccn3Cc2ccc(C(F)(F)F)cc2)c1` [Example 37, 4-(1-(4-(3-cyanophenyl)-1-(4-(trifluoromethyl)benzyl)-1H-indole-7-carboxamido)cyclopropyl)benzoic acid] cannot be ordered by IC50: ≥ 1000 nM for the first, ≥ 1000 nM for the second.

`O=C(O)c1ccc(C2(NC(=O)c3ccc(-c4ccc(F)c(F)c4)c4ccn(Cc5ccc(C(F)(F)F)cc5)c34)CC2)cc1` [Example 38, 4-(1-(4-(3,4-difluorophenyl)-1-(4-(trifluoromethyl)benzyl)-1H-indole-7-carboxamido)cyclopropyl)benzoic acid] and `O=C(O)c1ccc(C2(NC(=O)c3ccc(Nc4ccc(F)c(F)c4)c4ccn(Cc5ccc(C(F)(F)F)cc5)c34)CC2)cc1` [Example 63, 4-(1-(4-((3,4-difluorophenyl)amino)-1-(4-(trifluoromethyl)benzyl)-1H-indole-7-carboxamido)cyclopropyl)benzoic acid] cannot be ordered by IC50: ≥ 1000 nM for the first, 100 to 1000 nM for the second.

`O=C(O)c1ccc(C2(NC(=O)c3ccc(-c4cc(F)cc(F)c4)c4ccn(Cc5ccc(C(F)(F)F)cc5)c34)CC2)cc1` [Example 39, 4-(1-(4-(3,5-difluorophenyl)-1-(4-(trifluoromethyl)benzyl)-1H-indole-7-carboxamido)cyclopropyl)benzoic acid] and `O=C(O)c1ccc(C2(NC(=O)c3ccc(-c4cc(F)cc(C(F)(F)F)c4)c4ccn(Cc5ccc(C(F)(F)F)cc5)c34)CC2)cc1` [Example 41, 4-(1-(4-(3-fluoro-5-(trifluoromethyl)phenyl)-1-(4-(trifluoromethyl)benzyl)-1H-indole-7-carboxamido)cyclopropyl)benzoic acid] cannot be ordered by IC50: 100 to 1000 nM for the first, ≥ 1000 nM for the second.

Compared with `O=C(O)c1ccc(C2(NC(=O)c3ccc(-c4cccc(C(F)(F)F)c4)c4ccn(Cc5ccc(C(F)(F)F)cc5)c34)CC2)cc1` [Example 40, 4-(1-(1-(4-(trifluoromethyl)benzyl)-4-(3-(trifluoromethyl)phenyl)-1H-indole-7-carboxamido)cyclopropyl)benzoic acid], `O=C(O)c1ccc(C2(NC(=O)c3ccc(Nc4cccc(F)c4)c4ccn(Cc5ccc(C(F)(F)F)cc5)c34)CC2)cc1` [Example 67, 4-(1-(4-((3-fluorophenyl)amino)-1-(4-(trifluoromethyl)benzyl)-1H-indole-7-carboxamido)cyclopropyl)benzoic acid] is lower in IC50: ≥ 1000 nM for the first, < 100 nM for the second. The second is the more potent here.

First: O=C(O)c1ccc(C2(NC(=O)c3cc(Nc4ccccc4)cc4ccn(Cc5ccc(C(F)(F)F)cc5)c34)CC2)cc1 [Example 43, 4-(1-(5-(phenylamino)-1-(4-(trifluoromethyl)benzyl)-1H-indole-7-carboxamido)cyclopropyl)benzoic acid]
Second: O=C(O)c1ccc(C2(NC(=O)c3cc(Oc4ccccc4)cc4ccn(Cc5ccc(C(F)(F)F)cc5)c34)CC2)cc1 [Example 49, 4-(1-(5-phenoxy-1-(4-(trifluoromethyl)benzyl)-1H-indole-7-carboxamido)cyclopropyl)benzoic acid]
The IC50 of the first is lower: < 100 nM for the first, 100 to 1000 nM for the second.

`CN(c1ccccc1)c1cc(C(=O)NCc2ccc(C(=O)O)cc2)c2c(ccn2Cc2ccc(C(F)(F)F)cc2)c1` [Example 45, 4-((5-(methyl(phenyl)amino)-1-(4-(trifluoromethyl)benzyl)-1H-indole-7-carboxamido)methyl)benzoic acid] and `O=C(O)c1ccc(CNC(=O)c2cc(Nc3ccccc3)cc3ccn(Cc4ccc(C(F)(F)F)cc4)c23)cc1` [Example 47, 4-((5-(phenylamino)-1-(4-(trifluoromethyl)benzyl)-1H-indole-7-carboxamido)methyl)benzoic acid] cannot be ordered by IC50: 100 to 1000 nM for the first, ≥ 1000 nM for the second.

Going from `CN(c1ccccc1)c1ccc(C(=O)NC2(c3ccc(C(=O)O)cc3)CC2)c2c1ccn2Cc1ccc(C(F)(F)F)cc1` [Example 46, 4-(1-(4-(methyl(phenyl)amino)-1-(4-(trifluoromethyl)benzyl)-1H-indole-7-carboxamido)cyclopropyl)benzoic acid] to `O=C(O)c1ccc(C2(NC(=O)c3ccc(Nc4ccc(F)cc4)c4ccn(Cc5ccc(C(F)(F)F)cc5)c34)CC2)cc1` [Example 64, 4-(1-(4-((4-fluorophenyl)amino)-1-(4-(trifluoromethyl)benzyl)-1H-indole-7-carboxamido)cyclopropyl)benzoic acid], the IC50 falls from ≥ 1000 nM to < 100 nM. The second is the more potent here.

`C[C@H](NC(=O)c1cc(-c2ccc(F)c(F)c2)cc2ccn(Cc3ccc(C(F)(F)F)cc3)c12)c1ccc(C(=O)O)cc1` [Example 53] and `C[C@H](NC(=O)c1cc(-c2cc(F)cc(F)c2)cc2ccn(Cc3ccc(C(F)(F)F)cc3)c12)c1ccc(C(=O)O)cc1` [Example 54, (S)-4-(1-(5-(3,5-difluorophenyl)-1-(4-(trifluoromethyl)benzyl)-1H-indole-7-carboxamido)ethyl) benzoic acid] cannot be ordered by IC50: < 100 nM for the first, < 100 nM for the second.

`O=C(O)c1ccc(CNC(=O)c2ccc(N3CCOCC3)c3ccn(Cc4ccc(C(F)(F)F)cc4)c23)cc1` [Example 58, 4-((4-morpholino-1-(4-(trifluoromethyl)benzyl)-1H-indole-7-carboxamido)methyl)benzoic acid] and `CN1CCN(c2ccc(C(=O)NCc3ccc(C(=O)O)cc3)c3c2ccn3Cc2ccc(C(F)(F)F)cc2)CC1` [Example 59, 4-((4-(4-methylpiperazin-1-yl)-1-(4-(trifluoromethyl)benzyl)-1H-indole-7-carboxamido)methyl)benzoic acid] cannot be ordered by IC50: ≥ 1000 nM for the first, ≥ 1000 nM for the second.

`N#Cc1cccc(Nc2ccc(C(=O)NC3(c4ccc(C(=O)O)cc4)CC3)c3c2ccn3Cc2ccc(C(F)(F)F)cc2)c1` [Example 61, 4-(1-(4-((3-cyanophenyl)amino)-1-(4-(trifluoromethyl)benzyl)-1H-indole-7-carboxamido)cyclopropyl)benzoic acid] and `N#Cc1ccc(Nc2ccc(C(=O)NC3(c4ccc(C(=O)O)cc4)CC3)c3c2ccn3Cc2ccc(C(F)(F)F)cc2)cc1` [Example 62, 4-(1-(4-((4-cyanophenyl)amino)-1-(4-(trifluoromethyl)benzyl)-1H-indole-7-carboxamido)cyclopropyl)benzoic acid] cannot be ordered by IC50: 100 to 1000 nM for the first, ≥ 1000 nM for the second.

`O=C(O)c1ccc(C2(NC(=O)c3ccc(Nc4ccc(F)c(Cl)c4)c4ccn(Cc5ccc(C(F)(F)F)cc5)c34)CC2)cc1` [Example 65, 4-(1-(4-((3-chloro-4-fluorophenyl)amino)-1-(4-(trifluoromethyl)benzyl)-1H-indole-7-carboxamido)cyclopropyl)benzoic acid] and `O=C(O)c1ccc(C2(NC(=O)c3ccc(Nc4cc(F)cc(F)c4)c4ccn(Cc5ccc(C(F)(F)F)cc5)c34)CC2)cc1` [Example 66, 4-(1-(4-((3,5-difluorophenyl)amino)-1-(4-(trifluoromethyl)benzyl)-1H-indole-7-carboxamido)cyclopropyl)benzoic acid] fall in the same range of IC50: 100 to 1000 nM for the first, 100 to 1000 nM for the second.

`N#Cc1cccc(Nc2ccc(C(=O)NCc3ccc(C(=O)O)cc3)c3c2ccn3Cc2ccc(C(F)(F)F)cc2)c1` [Example 68, 4-((4-((3-cyanophenyl)amino)-1-(4-(trifluoromethyl)benzyl)-1H-indole-7-carboxamido)methyl)benzoic acid] and `O=C(O)c1ccc(CNC(=O)c2ccc(Nc3ccc(F)c(Cl)c3)c3ccn(Cc4ccc(C(F)(F)F)cc4)c23)cc1` [Example 70] cannot be ordered by IC50: < 100 nM for the first, < 100 nM for the second.
